The record followed here is ChEMBL document CHEMBL1201862, “PubChem BioAssay data set” (2004).

Active and inactive are the calls of the source.

Assay [1] can be described thus: Counterscreen for IDE inhibitors: Luminescence-based cell-based high throughput dose response assay to identify compounds that are cytotoxic to HEK cells. [Related pubchem assays: 434962 (Primary screen (IDE inhibitors in singlicate)), 449730 (Counterscreen (Cytotoxicity in triplicate)), 435028 (Confirmation (IDE inhibitors in triplicate)) …. It counts as functional. Particulars: HEK293.

In assay [2] the target is T1, Heat shock 70 kDa protein 1A (Homo sapiens, UniProt P0DMV8). The assay is described as follows: small-molecule inhibition of Hsp70 – biochemical, TR-FRET (AID 786). On the technique in general: Time-resolved FRET reads energy transfer from a long-lived donor to a nearby acceptor.
For assay [3], the target named is Eukaryotic translation initiation factor 4H (Homo sapiens, UniProt Q15056). The assay is described as follows: eIF4H binding inhibition – biochemical, uHTS, fluorescence polarization, translation initiation inhibitor project, primary screen (AID 2012).
The nature of assay [4]: viability loss in CEM21 cells – cell-based, CellTiter-Glo luminescence, cherry-picked, cytotoxicity control for viral fusion inhibitor project, dose response (AID 652042).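 Also: potency for signal decrease meaning cytotoxicity.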 It counts as functional. On the technique in general: Cellular ATP, detected with luciferase, serves as a proxy for viable cell number.
Assay [5] addresses Polyadenylate-binding protein 1 (Homo sapiens, UniProt P11940). In words: blockers of PABP interaction with poly(A) – biochemical, fluorescence polarization, […] (AID 2014). On the technique in general: Fluorescence polarisation rises when a labelled molecule tumbles more slowly, as on binding a larger partner.
For assay [6], the target named is T2, Dual specificity protein phosphatase 3 (Homo sapiens, UniProt P51452). The assay is described as follows: Dose Response Confirmation of compounds that inhibit VHR1 in Fluorescent Assay. [Related pubchem assays (depositor defined):AID1661, AID1878]. It counts as functional.
Assay [7] deals with T1, Heat shock 70 kDa protein 1A. In words: small molecules displacing fluorescent ligand from Hsp70 – biochemical, fluorescence polarization, primary screen (AID 583).
The target in assay [8] is T3, fMet-Leu-Phe receptor (Homo sapiens, UniProt P21462).
T3 sequence (P21462 whole entry): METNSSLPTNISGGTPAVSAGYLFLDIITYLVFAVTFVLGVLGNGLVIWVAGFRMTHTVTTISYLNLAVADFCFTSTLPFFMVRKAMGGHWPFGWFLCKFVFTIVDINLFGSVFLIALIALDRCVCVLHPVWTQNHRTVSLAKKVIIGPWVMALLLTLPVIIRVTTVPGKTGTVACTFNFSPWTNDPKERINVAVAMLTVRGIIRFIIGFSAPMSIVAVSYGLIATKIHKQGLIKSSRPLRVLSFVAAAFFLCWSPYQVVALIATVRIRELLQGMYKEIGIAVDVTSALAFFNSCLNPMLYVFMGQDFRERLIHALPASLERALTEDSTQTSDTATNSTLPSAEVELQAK
In words: formyl peptide receptor binders – dose response (AID 519). It counts as functional.

Assay [9] has as its target Protein-tyrosine kinase 2-beta (Homo sapiens, UniProt Q14289).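 Also: potency of inhibitors of PYK2 kinase phosphorylation of poly-GT substrate.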
Assay [10] concerns the target T4, Tyrosine-protein phosphatase non-receptor type 7 (Homo sapiens, UniProt P35236).
T4 sequence (P35236 whole entry): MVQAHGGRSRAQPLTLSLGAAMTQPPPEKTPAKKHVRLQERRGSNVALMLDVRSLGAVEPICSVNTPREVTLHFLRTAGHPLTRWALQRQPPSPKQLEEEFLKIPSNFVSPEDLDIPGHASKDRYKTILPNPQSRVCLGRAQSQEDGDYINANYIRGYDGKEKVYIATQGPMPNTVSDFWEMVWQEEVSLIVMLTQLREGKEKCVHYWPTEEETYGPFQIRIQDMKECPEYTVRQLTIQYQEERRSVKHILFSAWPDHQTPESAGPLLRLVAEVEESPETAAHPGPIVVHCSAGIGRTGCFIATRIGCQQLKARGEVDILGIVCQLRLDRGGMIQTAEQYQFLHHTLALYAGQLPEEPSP
The assay is described as follows: Dose Response confirmation of compounds that inhibit HePTP. [Related pubchem assays (depositor defined):AID1059, AID1661, AID2085]. It counts as functional.

The target of assay [11] is T2, Dual specificity protein phosphatase 3. In words: SAR VHR1 Fluorescent Assay for In Vitro dose response studies Set 3. [Related pubchem assays (depositor defined):AID1654, AID1661, AID1878]. It counts as functional.
The target in assay [12] is T5, Insulin-degrading enzyme (Homo sapiens, UniProt P14735).
T5 sequence (P14735 whole entry): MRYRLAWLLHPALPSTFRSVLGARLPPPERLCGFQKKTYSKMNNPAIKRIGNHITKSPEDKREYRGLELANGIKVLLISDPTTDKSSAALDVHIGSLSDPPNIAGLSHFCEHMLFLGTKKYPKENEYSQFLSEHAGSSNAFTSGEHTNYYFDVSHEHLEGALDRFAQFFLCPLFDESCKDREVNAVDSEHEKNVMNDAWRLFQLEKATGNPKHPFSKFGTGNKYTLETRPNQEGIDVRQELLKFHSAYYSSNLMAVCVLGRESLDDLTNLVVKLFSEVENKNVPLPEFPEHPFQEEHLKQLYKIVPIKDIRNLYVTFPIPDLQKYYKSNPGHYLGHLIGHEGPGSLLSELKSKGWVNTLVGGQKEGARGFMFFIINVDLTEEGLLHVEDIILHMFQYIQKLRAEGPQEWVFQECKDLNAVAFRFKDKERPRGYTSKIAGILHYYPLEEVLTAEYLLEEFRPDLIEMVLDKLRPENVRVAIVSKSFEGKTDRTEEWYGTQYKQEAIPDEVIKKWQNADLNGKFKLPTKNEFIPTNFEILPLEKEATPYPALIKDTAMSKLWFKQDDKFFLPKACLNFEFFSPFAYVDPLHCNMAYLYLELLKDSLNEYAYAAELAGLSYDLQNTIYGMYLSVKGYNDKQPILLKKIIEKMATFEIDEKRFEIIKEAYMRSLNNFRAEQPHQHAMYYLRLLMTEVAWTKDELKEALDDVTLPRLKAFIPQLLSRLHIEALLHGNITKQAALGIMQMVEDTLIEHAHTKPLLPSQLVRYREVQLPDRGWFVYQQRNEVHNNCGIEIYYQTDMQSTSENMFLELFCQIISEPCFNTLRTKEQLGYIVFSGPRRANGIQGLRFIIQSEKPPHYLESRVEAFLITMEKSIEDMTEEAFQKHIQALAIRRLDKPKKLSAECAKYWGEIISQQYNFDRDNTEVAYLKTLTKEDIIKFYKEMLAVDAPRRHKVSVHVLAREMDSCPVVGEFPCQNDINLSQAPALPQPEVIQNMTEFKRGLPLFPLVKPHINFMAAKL
The assay is described as follows: Dose Response: Fluorescence polarization-based cell-based high throughput dose response assay for inhibitors of insulin-degrading enzyme (IDE). [Related pubchem assays: 434962 (Primary screen (IDE inhibitors in singlicate)), 449730 (Counterscreen (Cytotoxicity in triplicate)), 435028 (Confirmation (IDE inhibitors in triplicate)), 434984 (Summary …. The format is functional.

A short description of assay [13]: blockers of HIV-1 envelope-mediated cell-cell fusion – cherry-pick, dose response (AID 652057). It counts as functional, cell-based.
The test system of assay [14] is HEK293. The assay is described as follows: cells. Particulars: Homo sapiens.
The subject of assay [15] is HEK293. In words: cells. Particulars: Homo sapiens. This is another data set of the same source.
Assay [16] has as its system Vero. The assay is described as follows: cells. The format is functional, cell-based. Particulars: Chlorocebus sabaeus.
A short description of assay [17]: viability of uninfected HEp-2 cells – cell-based, HTS, cytotoxicity control for RSV inhibitor project, dose response (AID 2410). It counts as functional. Particulars: human respiratory syncytial virus.
For assay [18], the system named is Vero. In words: cells. The format is functional. Particulars: Chlorocebus sabaeus.
Assay [19] is described as follows: cells.
Assay [20] concerns the target Keap1/Nrf2 (Homo sapiens, UniProt Q14145). In words: disruptors of Keap1 binding to Nrf2 peptide – biochemical, fluorescence polarization, cherry-picked samples, dose response (AID 588683).
For assay [21], the target named is T6, Replicative DNA helicase DnaB (Mycobacterium tuberculosis, UniProt P9WMR3).
T6 sequence (P9WMR3 whole entry): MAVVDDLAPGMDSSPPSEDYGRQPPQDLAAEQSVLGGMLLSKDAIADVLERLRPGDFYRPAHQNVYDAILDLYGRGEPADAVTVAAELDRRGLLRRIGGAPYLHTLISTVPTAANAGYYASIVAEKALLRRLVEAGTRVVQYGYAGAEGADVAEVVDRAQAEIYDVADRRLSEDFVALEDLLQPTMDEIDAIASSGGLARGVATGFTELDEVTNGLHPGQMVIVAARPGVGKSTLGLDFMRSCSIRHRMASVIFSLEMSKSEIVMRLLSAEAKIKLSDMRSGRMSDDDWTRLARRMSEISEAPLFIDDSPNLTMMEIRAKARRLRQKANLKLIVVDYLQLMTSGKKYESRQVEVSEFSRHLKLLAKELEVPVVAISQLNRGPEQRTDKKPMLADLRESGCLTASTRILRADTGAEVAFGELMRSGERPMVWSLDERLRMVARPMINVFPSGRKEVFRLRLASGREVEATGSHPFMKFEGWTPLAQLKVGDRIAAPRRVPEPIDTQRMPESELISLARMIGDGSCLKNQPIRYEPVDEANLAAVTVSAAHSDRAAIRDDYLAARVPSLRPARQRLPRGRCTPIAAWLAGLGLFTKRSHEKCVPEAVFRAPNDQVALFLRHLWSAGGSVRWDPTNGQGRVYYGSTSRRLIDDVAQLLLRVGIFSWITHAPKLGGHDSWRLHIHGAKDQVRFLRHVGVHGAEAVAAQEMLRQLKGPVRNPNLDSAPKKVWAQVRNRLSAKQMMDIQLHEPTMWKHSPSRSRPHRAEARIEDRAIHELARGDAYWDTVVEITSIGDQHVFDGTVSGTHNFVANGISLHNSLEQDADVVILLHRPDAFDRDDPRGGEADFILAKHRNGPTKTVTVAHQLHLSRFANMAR
In words: DnaB intein splicing inhibitors, dose response, biochemical, cell-free fluorescence (AID 449749). It counts as functional.

Assay [22] relates to Vero. In words: viability of Vero cells under compound – cytotoxicity control for flavivirus capping enzyme inhibitors (AID 588742). It counts as functional. Particulars: Chlorocebus sabaeus.
Assay [23] addresses T7, Protein RecA (Mycobacterium tuberculosis, UniProt P9WHJ3).
T7 sequence (P9WHJ3 whole entry): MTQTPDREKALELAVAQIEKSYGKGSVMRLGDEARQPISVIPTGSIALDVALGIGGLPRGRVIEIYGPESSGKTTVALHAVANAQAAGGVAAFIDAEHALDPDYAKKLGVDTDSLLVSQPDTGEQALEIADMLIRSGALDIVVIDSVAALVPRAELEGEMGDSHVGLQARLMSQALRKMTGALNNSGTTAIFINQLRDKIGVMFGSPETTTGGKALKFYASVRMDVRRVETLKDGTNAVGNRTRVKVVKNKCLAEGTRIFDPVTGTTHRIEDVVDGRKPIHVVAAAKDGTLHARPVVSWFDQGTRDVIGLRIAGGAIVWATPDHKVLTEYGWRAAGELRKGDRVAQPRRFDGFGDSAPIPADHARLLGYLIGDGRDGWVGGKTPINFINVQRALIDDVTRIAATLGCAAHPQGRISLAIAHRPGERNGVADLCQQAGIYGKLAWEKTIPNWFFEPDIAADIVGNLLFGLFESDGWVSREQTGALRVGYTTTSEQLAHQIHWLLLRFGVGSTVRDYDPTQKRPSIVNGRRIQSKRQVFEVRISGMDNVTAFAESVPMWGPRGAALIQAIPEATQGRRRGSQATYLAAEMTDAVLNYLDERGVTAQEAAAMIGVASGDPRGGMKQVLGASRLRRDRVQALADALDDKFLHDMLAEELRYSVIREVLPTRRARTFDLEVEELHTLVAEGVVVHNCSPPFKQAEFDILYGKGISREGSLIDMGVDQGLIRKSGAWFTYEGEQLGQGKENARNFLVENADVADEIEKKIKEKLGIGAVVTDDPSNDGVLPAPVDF
The assay is described as follows: Fluorescence Cell-Free Homogeneous Dose Retest to Identify Inhibitors of RecA-Intein Splicing Activity. [Related pubchem assays (depositor defined):AID2097, AID2223, AID489010, AID492950]. The format is functional.

Assay [24] deals with Genome polyprotein (dengue virus type 2, UniProt P29990). In words: flavivirus cap methylation enzyme inhibition – biochemical, confirmation dose response, primary screen (AID 588689). The format is functional.
Assay [25] deals with Escherichia coli. The assay is described as follows: microbe, parasite or virus in culture.

T2 sequence (P51452 whole entry): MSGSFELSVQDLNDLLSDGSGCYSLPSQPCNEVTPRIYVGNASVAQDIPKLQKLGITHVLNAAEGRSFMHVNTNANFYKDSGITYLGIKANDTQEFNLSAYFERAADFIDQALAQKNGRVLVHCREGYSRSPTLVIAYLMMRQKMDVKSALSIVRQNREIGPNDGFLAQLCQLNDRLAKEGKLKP
T1 sequence (P0DMV8 whole entry): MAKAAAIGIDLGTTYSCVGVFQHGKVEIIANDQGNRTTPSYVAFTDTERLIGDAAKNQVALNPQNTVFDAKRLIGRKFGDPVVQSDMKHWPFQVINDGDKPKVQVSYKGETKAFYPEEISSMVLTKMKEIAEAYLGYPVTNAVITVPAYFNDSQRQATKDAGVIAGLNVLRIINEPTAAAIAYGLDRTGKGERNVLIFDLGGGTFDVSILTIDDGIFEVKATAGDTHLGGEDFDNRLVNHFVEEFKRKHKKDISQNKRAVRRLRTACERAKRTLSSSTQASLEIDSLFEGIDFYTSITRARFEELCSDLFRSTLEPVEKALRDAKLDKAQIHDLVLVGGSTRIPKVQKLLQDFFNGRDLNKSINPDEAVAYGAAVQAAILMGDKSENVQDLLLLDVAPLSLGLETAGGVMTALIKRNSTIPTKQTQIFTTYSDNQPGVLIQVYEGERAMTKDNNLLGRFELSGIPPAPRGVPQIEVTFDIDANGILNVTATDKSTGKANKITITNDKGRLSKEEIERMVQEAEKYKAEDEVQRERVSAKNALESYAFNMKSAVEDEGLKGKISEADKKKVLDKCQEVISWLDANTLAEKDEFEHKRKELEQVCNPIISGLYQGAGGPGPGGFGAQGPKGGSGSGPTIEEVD
Chain of Polyadenylate-binding protein 1 (P11940 whole entry): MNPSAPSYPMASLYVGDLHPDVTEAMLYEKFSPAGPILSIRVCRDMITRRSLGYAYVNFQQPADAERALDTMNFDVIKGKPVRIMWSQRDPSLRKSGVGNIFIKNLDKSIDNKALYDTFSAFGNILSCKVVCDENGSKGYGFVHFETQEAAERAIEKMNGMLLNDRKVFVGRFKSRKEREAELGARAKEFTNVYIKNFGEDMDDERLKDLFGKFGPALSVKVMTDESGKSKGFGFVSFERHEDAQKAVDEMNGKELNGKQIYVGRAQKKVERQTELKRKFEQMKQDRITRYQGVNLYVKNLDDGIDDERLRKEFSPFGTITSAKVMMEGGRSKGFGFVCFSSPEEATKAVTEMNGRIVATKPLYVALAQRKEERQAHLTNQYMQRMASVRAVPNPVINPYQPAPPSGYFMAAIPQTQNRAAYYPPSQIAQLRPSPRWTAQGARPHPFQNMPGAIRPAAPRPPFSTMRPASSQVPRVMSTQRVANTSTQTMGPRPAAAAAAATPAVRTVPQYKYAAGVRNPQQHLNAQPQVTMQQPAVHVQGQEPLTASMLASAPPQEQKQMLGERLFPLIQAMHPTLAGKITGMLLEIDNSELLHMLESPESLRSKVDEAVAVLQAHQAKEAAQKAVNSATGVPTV
Chain of Protein-tyrosine kinase 2-beta (Q14289 whole entry): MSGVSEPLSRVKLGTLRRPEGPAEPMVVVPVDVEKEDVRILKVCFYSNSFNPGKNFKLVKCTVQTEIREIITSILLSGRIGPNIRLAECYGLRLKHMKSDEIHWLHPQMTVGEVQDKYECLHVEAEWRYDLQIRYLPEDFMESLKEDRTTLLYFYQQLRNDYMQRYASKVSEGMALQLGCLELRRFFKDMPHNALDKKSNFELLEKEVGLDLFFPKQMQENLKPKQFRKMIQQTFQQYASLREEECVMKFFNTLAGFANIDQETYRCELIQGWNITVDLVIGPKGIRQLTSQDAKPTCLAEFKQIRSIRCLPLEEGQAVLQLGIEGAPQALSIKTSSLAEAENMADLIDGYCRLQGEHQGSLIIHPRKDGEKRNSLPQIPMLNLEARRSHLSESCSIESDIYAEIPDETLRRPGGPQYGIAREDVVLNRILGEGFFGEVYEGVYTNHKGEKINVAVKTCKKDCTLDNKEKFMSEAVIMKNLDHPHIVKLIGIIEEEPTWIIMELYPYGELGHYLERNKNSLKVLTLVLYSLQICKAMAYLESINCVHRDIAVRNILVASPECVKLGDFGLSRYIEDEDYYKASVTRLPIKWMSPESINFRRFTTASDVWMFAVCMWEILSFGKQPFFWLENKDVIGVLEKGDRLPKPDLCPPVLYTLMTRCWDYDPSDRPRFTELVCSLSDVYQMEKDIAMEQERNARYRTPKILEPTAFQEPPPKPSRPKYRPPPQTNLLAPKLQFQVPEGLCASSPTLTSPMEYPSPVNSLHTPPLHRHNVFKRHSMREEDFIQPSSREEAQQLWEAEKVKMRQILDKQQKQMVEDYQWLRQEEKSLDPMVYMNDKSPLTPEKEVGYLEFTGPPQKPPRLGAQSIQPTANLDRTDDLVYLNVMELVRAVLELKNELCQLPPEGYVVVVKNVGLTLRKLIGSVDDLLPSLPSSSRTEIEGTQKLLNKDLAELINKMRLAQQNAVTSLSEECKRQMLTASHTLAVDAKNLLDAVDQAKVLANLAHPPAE
Chain of Keap1/Nrf2 (Q16236 whole entry): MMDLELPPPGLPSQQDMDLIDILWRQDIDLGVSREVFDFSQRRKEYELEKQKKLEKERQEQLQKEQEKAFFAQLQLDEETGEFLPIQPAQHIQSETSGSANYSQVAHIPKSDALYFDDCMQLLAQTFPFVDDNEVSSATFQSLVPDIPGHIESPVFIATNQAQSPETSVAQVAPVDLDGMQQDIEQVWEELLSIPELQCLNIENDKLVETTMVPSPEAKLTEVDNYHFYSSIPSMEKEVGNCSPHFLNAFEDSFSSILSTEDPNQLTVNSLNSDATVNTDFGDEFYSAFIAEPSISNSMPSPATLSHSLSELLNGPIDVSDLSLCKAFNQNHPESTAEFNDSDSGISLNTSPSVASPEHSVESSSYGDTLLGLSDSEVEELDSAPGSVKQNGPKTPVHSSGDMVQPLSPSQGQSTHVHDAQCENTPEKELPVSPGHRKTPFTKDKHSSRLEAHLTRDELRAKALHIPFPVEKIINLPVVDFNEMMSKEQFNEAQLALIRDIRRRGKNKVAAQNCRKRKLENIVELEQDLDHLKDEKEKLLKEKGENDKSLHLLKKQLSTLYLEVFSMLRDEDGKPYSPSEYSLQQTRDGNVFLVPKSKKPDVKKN
Chain of Keap1/Nrf2 (Q14145 whole entry): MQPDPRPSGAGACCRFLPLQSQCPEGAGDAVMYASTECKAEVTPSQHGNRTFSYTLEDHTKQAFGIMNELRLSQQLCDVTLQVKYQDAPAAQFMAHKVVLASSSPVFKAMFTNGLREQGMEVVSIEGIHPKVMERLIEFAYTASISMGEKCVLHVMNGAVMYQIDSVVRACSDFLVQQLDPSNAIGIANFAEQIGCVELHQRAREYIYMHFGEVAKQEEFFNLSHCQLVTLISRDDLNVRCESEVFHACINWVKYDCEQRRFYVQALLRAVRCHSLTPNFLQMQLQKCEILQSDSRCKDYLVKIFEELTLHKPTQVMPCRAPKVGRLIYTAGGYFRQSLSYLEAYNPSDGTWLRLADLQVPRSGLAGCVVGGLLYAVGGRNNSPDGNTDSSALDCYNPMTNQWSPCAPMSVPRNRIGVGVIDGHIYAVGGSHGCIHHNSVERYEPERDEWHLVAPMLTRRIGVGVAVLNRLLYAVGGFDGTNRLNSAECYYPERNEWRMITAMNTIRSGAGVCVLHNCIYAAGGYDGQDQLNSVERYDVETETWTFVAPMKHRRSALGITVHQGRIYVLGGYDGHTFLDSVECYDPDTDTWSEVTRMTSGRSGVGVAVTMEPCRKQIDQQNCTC
Chain of Genome polyprotein (P29990 2492-3391 limits assumed): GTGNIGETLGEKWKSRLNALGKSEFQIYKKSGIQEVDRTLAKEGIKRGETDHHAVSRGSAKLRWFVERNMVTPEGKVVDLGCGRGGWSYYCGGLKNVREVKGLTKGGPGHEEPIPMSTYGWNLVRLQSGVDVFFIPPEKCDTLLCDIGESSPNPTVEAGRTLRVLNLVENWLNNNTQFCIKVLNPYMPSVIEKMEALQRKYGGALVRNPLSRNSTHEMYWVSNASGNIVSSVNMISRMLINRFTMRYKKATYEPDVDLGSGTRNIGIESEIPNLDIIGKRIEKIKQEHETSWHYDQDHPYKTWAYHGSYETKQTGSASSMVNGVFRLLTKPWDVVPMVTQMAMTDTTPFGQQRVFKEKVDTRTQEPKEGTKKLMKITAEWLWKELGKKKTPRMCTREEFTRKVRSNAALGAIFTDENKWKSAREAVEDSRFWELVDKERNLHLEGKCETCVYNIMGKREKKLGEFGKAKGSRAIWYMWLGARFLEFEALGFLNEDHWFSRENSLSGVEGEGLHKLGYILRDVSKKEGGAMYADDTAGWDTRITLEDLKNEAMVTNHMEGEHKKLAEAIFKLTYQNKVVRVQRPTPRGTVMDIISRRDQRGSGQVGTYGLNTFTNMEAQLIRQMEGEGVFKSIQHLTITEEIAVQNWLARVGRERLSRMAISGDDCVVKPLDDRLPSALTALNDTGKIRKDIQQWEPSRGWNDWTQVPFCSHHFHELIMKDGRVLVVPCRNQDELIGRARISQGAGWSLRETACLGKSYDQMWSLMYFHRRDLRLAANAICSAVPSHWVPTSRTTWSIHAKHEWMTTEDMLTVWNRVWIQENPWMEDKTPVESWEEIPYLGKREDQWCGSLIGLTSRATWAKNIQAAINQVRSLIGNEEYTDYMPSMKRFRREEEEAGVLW

As usually defined, the IC50 is the concentration that gives 50% inhibition. For orientation: AC50 means the midpoint of the concentration-response curve, whichever way the signal moves. A word on the Ki: it is a dissociation constant, usually derived from enzyme kinetics or from competition with a known ligand. `COc1ccc(-c2nnc(Nc3nc4c(OC)cccc4s3)o2)cc1`: the IC50 was 17.1 µM (not active) in [1]; > 100 µM (not active) in assay [2]; 12.5 µM (active) in [3]; > 100 µM (inactive) in assay [5]; 1.78 µM (active) in assay [6]; > 100 µM (not active) in assay [7]. The concentration for half-maximal inhibition (IC50) is 9.06 µM (active) in assay [9], 6.08 µM (active) in assay [10], 3.61 µM (active) in [11] and > 55.9 µM (not active) in [12]. Moreover, the AC50 is 52.2 µM (active) in assay [4] and 5.28 µM (active) in assay [13]. The Ki in [8] is > 66.7 µM (inactive).

One may read the EC50 as the midpoint of the concentration-response curve. With `Cc1nn2c(nc(N3CCCCC3)c3ccccc32)c1C=O`, the EC50 in [14] and in assay [15] was > 59.7 µM (inactive) each time.

For orientation: CC50 means the concentration that lowers cell viability or growth by half. With `CC1Cc2ccccc2N1S(=O)(=O)c1cccc(C(=O)N2CCN(c3ncccn3)CC2)c1` (stereo not given), the half-inhibitory concentration (IC50) in assay [16] is 2.15 µM (active); in [19], 1.01 µM (active). Besides, the CC50 is 3.41 µM (active) in [17] and > 25 µM (active) in assay [18].

Turning to `O=C1/C(=N\S(=O)(=O)c2ccc([N+](=O)[O-])cc2)C(Cl)=C(O)c2ccccc21`, the AC50 in [20] is > 52 µM (inactive); in assay [21] it was 6.49 µM (active). For the same compound, the half-maximal cytotoxic concentration (CC50) in assay [22] was 34.2 µM (active). For the same compound, the 50% effective concentration (EC50) in assay [23] was 1.26 µM (active). Further, in assay [24], the IC50 was 76.9 µM (active).

Take `CCCC(C(=O)NNC(=O)c1cc(C)oc1C)c1ccccc1` (stereo not given): the AC50 in assay [25] was 31.7 µM (active).
